Structures can show the parent of a compound that is named as a salt.
melting point [°C] | SMILES
234 to 238 | CN1C(=O)[C@@H](CN2CCCCC2)C[C@H]1c1ccc2c(c1)CCCC2.Cl [Example A6]
135 to 140 | CC(=O)Nc1ccccc1C#C[C@H]1C[C@@H](CN2CCCCC2)C(=O)N1C.Cl
166 to 169 | CN1C(=O)[C@@H](CN2CCCCC2)C[C@H]1C#Cc1ccccc1Cl.Cl [Example D5]
162 to 163 | CN1C(=O)[C@@H](CN2CCCCC2)C[C@H]1c1ccc(-c2cccc(Cl)c2)s1.Cl [Example E9]
134 to 139 | CN1C(=O)[C@@H](CN2CCCCC2)C[C@H]1c1ccc(-c2ccccc2Cl)cc1.Cl [Example H2]
178 to 183 | CN1C(=O)[C@@H](CN2CCCCC2)C[C@H]1c1cnc(-c2ccccc2Cl)s1.Cl [Example F1]
199 to 203 | CN1C(=O)[C@@H](CN2CCCCC2)C[C@H]1C#Cc1ccccc1.Cl [Example D4]
130 to 135 | CN1C(=O)[C@@H](CN2CCCCC2)C[C@H]1c1ccc(-c2ccccc2Cl)cc1.Cl [Example H3]
69 to 71 | CN1C(=O)[C@@H](CN2CCCCC2)C[C@H]1c1ccc(Br)s1 [Example E1, (+)-cis-5-(5-Bromo-thiophen-2-yl)-1-methyl-3-piperidin-1-ylmethyl-pyrrolidin-2-one]
184 to 190 | Cc1cc(C)cc([C@@H]2C[C@H](CN3CCCCC3)C(=O)N2C)c1.Cl [Example A3]
138 to 142 | Cc1ccc([C@@H]2C[C@H](CN3CCCCC3)C(=O)N2C)cc1C.Cl [Example A2]
172 to 180 | Cc1cc(C)cc([C@@H]2C[C@H](CN3CCCCC3)C(=O)N2C)c1.Cl [Example A4]
87 to 90 | CN1C(=O)C(CN2CCCCC2)CC1C1CC1c1ccccc1Cl (stereo not shown) [Example C2, 5-[2-(2-Chloro-phenyl)-cyclopropyl]-1-methyl-3-piperidin-1-ylmethyl-pyrrolidin-2-one]
207 to 210 | CN1C(=O)[C@@H](CN2CCCCC2)C[C@H]1c1cnc(-c2sccc2Cl)s1.Cl [Example F4]
155 to 158 | CN1C(=O)[C@@H](CN2CCCCC2)C[C@H]1c1ccc(-c2cccc(Cl)c2)s1.Cl [Example E10]
143 to 147 | Cc1ccc([C@@H]2C[C@H](CN3CCCCC3)C(=O)N2C)cc1C.Cl [Example A1]
171 to 176 | CN1C(=O)[C@@H](CN2CCCCC2)C[C@H]1c1cnc(-c2ccccc2Cl)s1.Cl [Example F2]
215 to 220 | CN1C(=O)[C@@H](CN2CCCCC2)C[C@H]1c1cnc(-c2sccc2Cl)s1.Cl [Example F3]
169 to 172 | Cc1cccc(C#C[C@@H]2C[C@H](CN3CCCCC3)C(=O)N2C)c1.Cl [Example D2]
55 to 58 | CN1C(=O)[C@@H](CN2CCCCC2)C[C@H]1c1ccc(Br)cc1 (as salt: HCl) [Example A7, (−)-cis-5-(4-Bromo-phenyl)-1-methyl-3-piperidin-1-ylmethyl-pyrrolidin-2-one]
197 to 201 | CN1C(=O)[C@@H](CN2CCCCC2)C[C@H]1C#Cc1ccccc1.Cl [Example D3]
160 to 165 | CN1C(=O)[C@@H](CN2CCCCC2)C[C@H]1C#Cc1ccccc1Cl.Cl [Example D6]
163 to 167 | Cc1cccc(C#C[C@@H]2C[C@H](CN3CCCCC3)C(=O)N2C)c1.Cl [Example D1]
110 to 112 | CN1C(=O)[C@@H](CN2CCCCC2)C[C@H]1c1ccc(-c2ccc3c(c2)OCO3)cc1 (relative stereo) [Example H5, cis-5-(4-(Benzo[1,3]dioxol-5-yl)-phenyl)-1-methyl-3-piperidin-1-ylmethyl-pyrrolidin-2-one]
208 to 210 | CN1C(=O)[C@@H](CN2CCCCC2)C[C@H]1c1ccc2c(c1)CCCC2.Cl [Example A5]

— US20070172421A1, “Substituted pyrrolidine-2-ones” (priority 2004, published 2007)
